In patent publication US9636418B2 (priority 2013, dated 2017):
pIC50: −log10 of the molar value. Where “and” joins values, the source holds several entries; their conditions need not be identical. Identical values can stand only once.

What was measured:
Test in all cases: cell-based
hNav1.5 = hNav1.5 (Homo sapiens, UniProt Q14524); conditions: IonWorks Quattro; read-out: IC50 Nav1.5
hNav1.4 = hNav1.4 (Homo sapiens, UniProt P35499); conditions: for pIC50: IonWorks Quattro, read-out: IC50 Nav1.4
hNav1.3 = hNav1.3 (Homo sapiens, UniProt Q9NY46); conditions: IonWorks Quattro; read-out: IC50 Nav1.3
hNav1.7 = hNav1.7 (Homo sapiens, UniProt Q15858); conditions: IonWorks Quattro; read-out: IC50 Nav1.7
Sequence of hNav1.7 (Q15858 whole entry): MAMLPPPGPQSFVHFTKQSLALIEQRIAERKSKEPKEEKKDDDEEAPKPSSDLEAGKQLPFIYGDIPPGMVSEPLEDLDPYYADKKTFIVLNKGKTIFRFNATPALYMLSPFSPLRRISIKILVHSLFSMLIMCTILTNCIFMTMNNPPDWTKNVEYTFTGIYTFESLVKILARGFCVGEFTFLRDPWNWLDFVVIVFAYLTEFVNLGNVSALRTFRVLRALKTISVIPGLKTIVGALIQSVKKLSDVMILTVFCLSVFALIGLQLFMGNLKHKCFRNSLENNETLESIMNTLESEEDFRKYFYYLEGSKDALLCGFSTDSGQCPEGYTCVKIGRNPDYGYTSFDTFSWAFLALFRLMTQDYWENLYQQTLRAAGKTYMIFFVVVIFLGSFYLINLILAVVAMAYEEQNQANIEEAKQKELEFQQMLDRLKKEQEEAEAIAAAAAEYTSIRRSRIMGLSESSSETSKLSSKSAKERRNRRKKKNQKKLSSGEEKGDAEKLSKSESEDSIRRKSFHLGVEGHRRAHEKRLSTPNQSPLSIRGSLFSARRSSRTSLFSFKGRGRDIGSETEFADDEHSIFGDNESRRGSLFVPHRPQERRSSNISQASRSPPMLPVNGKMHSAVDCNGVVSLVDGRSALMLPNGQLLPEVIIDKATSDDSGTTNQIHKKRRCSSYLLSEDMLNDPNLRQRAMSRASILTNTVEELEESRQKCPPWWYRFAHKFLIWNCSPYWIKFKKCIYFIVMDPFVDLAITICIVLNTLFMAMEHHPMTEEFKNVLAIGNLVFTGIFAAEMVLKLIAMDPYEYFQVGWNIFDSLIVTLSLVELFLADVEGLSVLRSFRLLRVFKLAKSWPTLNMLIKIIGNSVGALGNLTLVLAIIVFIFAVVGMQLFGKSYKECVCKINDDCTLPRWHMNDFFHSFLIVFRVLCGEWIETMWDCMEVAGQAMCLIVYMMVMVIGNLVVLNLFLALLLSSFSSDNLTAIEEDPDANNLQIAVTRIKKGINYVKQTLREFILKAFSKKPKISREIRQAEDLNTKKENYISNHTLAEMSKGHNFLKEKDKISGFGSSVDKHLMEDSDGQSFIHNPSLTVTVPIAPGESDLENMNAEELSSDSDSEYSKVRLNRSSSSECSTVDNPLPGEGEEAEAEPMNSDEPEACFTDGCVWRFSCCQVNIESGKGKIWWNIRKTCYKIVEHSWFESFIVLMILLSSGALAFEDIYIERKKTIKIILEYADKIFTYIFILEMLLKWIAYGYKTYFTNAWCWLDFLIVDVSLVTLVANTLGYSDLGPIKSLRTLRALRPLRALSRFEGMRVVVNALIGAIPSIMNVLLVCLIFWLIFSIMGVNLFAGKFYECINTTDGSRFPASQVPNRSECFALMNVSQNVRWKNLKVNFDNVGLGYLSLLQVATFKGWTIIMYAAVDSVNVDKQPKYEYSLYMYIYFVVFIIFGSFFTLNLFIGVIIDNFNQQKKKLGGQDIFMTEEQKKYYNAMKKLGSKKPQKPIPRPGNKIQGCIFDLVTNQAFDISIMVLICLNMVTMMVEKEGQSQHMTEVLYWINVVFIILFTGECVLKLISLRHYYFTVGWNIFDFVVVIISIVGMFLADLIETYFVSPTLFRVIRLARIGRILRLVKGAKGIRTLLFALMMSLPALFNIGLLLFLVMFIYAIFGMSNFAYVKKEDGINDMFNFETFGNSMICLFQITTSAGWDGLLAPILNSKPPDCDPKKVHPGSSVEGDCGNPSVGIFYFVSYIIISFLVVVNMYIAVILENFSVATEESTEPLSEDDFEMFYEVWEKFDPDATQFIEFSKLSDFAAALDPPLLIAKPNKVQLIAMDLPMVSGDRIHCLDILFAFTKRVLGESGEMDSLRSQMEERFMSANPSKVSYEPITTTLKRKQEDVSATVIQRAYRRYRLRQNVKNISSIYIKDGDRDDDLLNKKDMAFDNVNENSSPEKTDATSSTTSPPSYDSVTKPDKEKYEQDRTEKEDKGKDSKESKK

Sequence of hNav1.3 (Q9NY46 whole entry): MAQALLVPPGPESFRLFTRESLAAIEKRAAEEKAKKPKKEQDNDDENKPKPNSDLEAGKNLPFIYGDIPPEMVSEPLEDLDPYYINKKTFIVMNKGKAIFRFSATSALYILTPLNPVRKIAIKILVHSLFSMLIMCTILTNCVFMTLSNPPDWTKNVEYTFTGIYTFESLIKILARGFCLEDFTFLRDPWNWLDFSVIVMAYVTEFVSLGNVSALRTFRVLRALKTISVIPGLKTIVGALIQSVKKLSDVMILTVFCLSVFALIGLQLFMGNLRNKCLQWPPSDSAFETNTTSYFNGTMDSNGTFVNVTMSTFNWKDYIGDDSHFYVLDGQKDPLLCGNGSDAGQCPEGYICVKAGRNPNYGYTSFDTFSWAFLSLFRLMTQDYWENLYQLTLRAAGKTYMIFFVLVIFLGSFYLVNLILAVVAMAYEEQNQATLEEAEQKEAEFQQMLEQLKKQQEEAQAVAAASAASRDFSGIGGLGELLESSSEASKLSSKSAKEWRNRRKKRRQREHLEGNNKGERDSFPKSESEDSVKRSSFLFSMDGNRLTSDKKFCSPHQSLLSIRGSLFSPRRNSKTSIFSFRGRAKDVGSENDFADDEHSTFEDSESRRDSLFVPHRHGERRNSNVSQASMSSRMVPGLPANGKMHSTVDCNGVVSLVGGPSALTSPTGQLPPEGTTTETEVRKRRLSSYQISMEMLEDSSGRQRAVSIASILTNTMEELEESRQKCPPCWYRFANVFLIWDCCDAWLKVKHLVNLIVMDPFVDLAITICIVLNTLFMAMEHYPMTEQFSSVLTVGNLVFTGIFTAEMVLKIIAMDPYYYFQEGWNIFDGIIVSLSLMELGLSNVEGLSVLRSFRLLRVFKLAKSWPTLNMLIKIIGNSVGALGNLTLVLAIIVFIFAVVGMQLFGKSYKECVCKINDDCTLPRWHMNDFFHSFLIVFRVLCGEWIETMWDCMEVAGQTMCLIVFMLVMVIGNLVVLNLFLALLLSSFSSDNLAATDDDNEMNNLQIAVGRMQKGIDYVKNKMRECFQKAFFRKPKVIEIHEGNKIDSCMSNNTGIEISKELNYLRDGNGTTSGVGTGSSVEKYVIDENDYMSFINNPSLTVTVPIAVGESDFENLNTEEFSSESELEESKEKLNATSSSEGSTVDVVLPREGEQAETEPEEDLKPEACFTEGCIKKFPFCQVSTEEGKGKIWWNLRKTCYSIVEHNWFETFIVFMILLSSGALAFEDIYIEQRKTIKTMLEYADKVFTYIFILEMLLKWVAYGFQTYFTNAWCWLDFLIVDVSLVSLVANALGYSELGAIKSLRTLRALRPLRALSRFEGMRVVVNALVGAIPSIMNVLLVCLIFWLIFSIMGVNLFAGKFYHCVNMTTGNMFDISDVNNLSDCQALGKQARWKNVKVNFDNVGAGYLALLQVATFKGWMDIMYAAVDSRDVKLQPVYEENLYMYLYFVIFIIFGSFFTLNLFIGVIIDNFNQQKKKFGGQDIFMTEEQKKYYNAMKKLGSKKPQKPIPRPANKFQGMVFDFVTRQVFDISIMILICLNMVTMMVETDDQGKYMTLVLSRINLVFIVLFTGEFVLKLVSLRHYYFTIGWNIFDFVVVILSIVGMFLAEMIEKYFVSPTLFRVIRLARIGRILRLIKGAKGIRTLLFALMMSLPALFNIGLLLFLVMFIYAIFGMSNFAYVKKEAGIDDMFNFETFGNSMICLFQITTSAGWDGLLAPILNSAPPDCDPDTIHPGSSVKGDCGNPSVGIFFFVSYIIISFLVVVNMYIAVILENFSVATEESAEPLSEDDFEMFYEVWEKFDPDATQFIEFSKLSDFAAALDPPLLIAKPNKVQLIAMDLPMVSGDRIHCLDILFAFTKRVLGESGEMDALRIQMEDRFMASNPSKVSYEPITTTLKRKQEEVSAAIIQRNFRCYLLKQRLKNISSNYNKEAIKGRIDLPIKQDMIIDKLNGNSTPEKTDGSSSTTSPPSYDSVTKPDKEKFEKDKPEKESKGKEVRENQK

Row | SMILES | pIC50 (hNav1.5) | pIC50 (hNav1.4) | pIC50 (hNav1.3) | pIC50 (hNav1.7) | Nav1.4/Nav1.7 (hNav1.4; ratio of IonWorks Quattro IC50 values)
1 | CC[C@H](C)[C@H](NC(=O)[C@H](Cc1ccc(O)cc1)NC(=O)[C@H](CCCCN)NC(=O)[C@H](CCCNC(=N)N)NC(=O)[C@@H]1CSSC[C@@H]2NC(=O)[C@H](C)NC(=O)[C@H](CCCNC(=N)N)NC(=O)[C@H](CCCCN)NC(=O)[C@H](CO)NC(=O)[C@H](CC(=O)O)NC(=O)[C@@H]3CSSC[C@H](NC(=O)[C@H](CCC(=O)O)NC(=O)[C@H](CC(C)C)NC(=O)CNC(=O)[C@H](CCC(=O)O)NC(=O)[C@H](CSSC[C@H](NC(=O)[C@@H](N)Cc4ccc(O)cc4)C(=O)N[C@@H](CCC(N)=O)C(=O)N[C@@H](CCCCN)C(=O)N[C@@H](CC(N)=O)C(=O)N[C@@H](CCSC)C(=O)N[C@@H](Cc4c[nH]c5ccccc45)C(=O)N[C@@H]([C@@H](C)O)C(=O)N3)NC2=O)C(=O)N[C@@H](CCCCN)C(=O)N[C@@H](CC(C)C)C(=O)N[C@@H](Cc2c[nH]c3ccccc23)C(=O)N1)C(N)=O [compound 201] | < 5.30 | < 5.30 | < 5.30 | 5.38 and < 5.30 | –
2 | CC[C@H](C)[C@H](NC(=O)[C@H](Cc1ccc(O)cc1)NC(=O)[C@H](CCCCN)NC(=O)[C@H](CCCNC(=N)N)NC(=O)[C@@H]1CSSC[C@@H]2NC(=O)[C@H](C)NC(=O)[C@H](CCCNC(=N)N)NC(=O)[C@H](CCCCN)NC(=O)[C@H](CO)NC(=O)[C@H](CC(=O)O)NC(=O)[C@@H]3CSSC[C@H](NC(=O)[C@H](CCC(=O)O)NC(=O)[C@H](CC(C)C)NC(=O)CNC(=O)[C@H](CCC(=O)O)NC(=O)[C@H](CSSC[C@H](NC(=O)[C@@H](N)Cc4ccc(O)cc4)C(=O)N[C@@H](CCC(N)=O)C(=O)N[C@@H](CCCCN)C(=O)N[C@@H](CCC(=O)O)C(=O)N[C@@H](CCSC)C(=O)N[C@@H](Cc4c[nH]c5ccccc45)C(=O)N[C@@H]([C@@H](C)O)C(=O)N3)NC2=O)C(=O)N[C@@H](CCCCN)C(=O)N[C@@H](CC(C)C)C(=O)N[C@@H](Cc2c[nH]c3ccccc23)C(=O)N1)C(N)=O [compound 203] | < 5.15 | < 5.15 | < 5.15 | < 5.15 | –
3 | CCC[C@@H]1NC(=O)[C@H](CCSC)NC(=O)[C@H](Cc2c[nH]c3ccccc23)NC(=O)[C@H](CCCCN)NC(=O)[C@H](CCC(N)=O)NC(=O)[C@@H](NC(=O)[C@@H](N)Cc2ccc(O)cc2)CSSC[C@@H]2NC(=O)[C@@H]3CSSC[C@@H](C(=O)N[C@@H](CCCNC(=N)N)C(=O)N[C@@H](CCCCN)C(=O)N[C@@H](Cc4ccc(O)cc4)C(=O)N[C@H](C(N)=O)[C@@H](C)CC)NC(=O)[C@H](Cc4c[nH]c5ccccc45)NC(=O)[C@H](CC(C)C)NC(=O)[C@H](CCCCN)NC(=O)[C@H](CSSC[C@H](NC(=O)[C@H]([C@@H](C)O)NC1=O)C(=O)N[C@@H](CC(=O)O)C(=O)N[C@@H](CO)C(=O)N[C@@H](CCCCN)C(=O)N[C@@H](CCCNC(=N)N)C(=O)N[C@@H](C)C(=O)N3)NC(=O)[C@H](CCC(=O)O)NC(=O)[C@H](CC(C)C)NC(=O)CNC(=O)[C@H](CCC(=O)O)NC2=O [compound 212] | < 5.15 | < 5.15 | < 5.15 | 5.35 | –
4 | CC[C@H](C)[C@H](NC(=O)[C@H](Cc1ccc(O)cc1)NC(=O)[C@H](CCCCN)NC(=O)[C@H](CCCNC(=N)N)NC(=O)[C@@H]1CSSC[C@@H]2NC(=O)[C@H](C)NC(=O)[C@H](CCCNC(=N)N)NC(=O)[C@H](CCCCN)NC(=O)[C@H](CO)NC(=O)[C@H](CC(=O)O)NC(=O)[C@@H]3CSSC[C@H](NC(=O)[C@H](CCC(=O)O)NC(=O)[C@H](CC(C)C)NC(=O)CNC(=O)[C@H](CCC(=O)O)NC(=O)[C@H](CSSC[C@H](NC(=O)[C@@H](N)Cc4ccc(O)cc4)C(=O)N[C@@H](CCC(N)=O)C(=O)N[C@@H](CCCCN)C(=O)N[C@@H](Cc4c[nH]c5ccccc45)C(=O)N[C@@H](CCSC)C(=O)N[C@@H](CCCNC(N)=O)C(=O)N[C@@H]([C@@H](C)O)C(=O)N3)NC2=O)C(=O)N[C@@H](CCCCN)C(=O)N[C@@H](CC(C)C)C(=O)N[C@@H](Cc2c[nH]c3ccccc23)C(=O)N1)C(N)=O [compound 213] | < 5.15 | < 5.15 | < 5.15 | 5.24 | –
5 | CC[C@H](C)[C@H](NC(=O)[C@H](Cc1ccc(O)cc1)NC(=O)[C@H](CCCCN)NC(=O)[C@H](CCCNC(=N)N)NC(=O)[C@@H]1CSSC[C@@H]2NC(=O)[C@H](C)NC(=O)[C@H](CCCNC(=N)N)NC(=O)[C@H](CCCCN)NC(=O)[C@H](CO)NC(=O)[C@H](CC(=O)O)NC(=O)[C@@H]3CSSC[C@H](NC(=O)[C@H](CCC(=O)O)NC(=O)[C@H](CC(C)C)NC(=O)CNC(=O)[C@H](CCC(=O)O)NC(=O)[C@H](CSSC[C@H](NC(=O)[C@@H](N)Cc4ccc(O)cc4)C(=O)N[C@@H](CCC(N)=O)C(=O)N[C@@H](CCCCN)C(=O)N[C@@H](Cc4c[nH]c5ccccc45)C(=O)N[C@@H](CCSC)C(=O)N[C@@H](CCCCN)C(=O)N[C@@H]([C@@H](C)O)C(=O)N3)NC2=O)C(=O)N[C@@H](CCCCN)C(=O)N[C@@H](CC(C)C)C(=O)N[C@@H](Cc2c[nH]c3ccccc23)C(=O)N1)C(N)=O [compound 214] | < 5.15 | < 5.15 | < 5.15 | 5.57 | –
6 | CC[C@H](C)[C@H](NC(=O)[C@H](Cc1ccc(O)cc1)NC(=O)[C@H](CCCCN)NC(=O)[C@H](CCCNC(=N)N)NC(=O)[C@@H]1CSSC[C@@H]2NC(=O)[C@H](C)NC(=O)[C@H](CCCNC(=N)N)NC(=O)[C@H](CCCCN)NC(=O)[C@H](CO)NC(=O)[C@H](CC(=O)O)NC(=O)[C@@H]3CSSC[C@H](NC(=O)[C@H](CCC(=O)O)NC(=O)[C@H](CC(C)C)NC(=O)CNC(=O)[C@H](CCC(=O)O)NC(=O)[C@H](CSSC[C@H](NC(=O)[C@@H](N)Cc4ccc(O)cc4)C(=O)N[C@@H](CCC(N)=O)C(=O)N[C@@H](CCCCN)C(=O)N[C@@H](Cc4c[nH]c5ccccc45)C(=O)N[C@@H](CCSC)C(=O)N[C@@H](CC(N)=O)C(=O)N[C@@H]([C@@H](C)O)C(=O)N3)NC2=O)C(=O)N[C@@H](CCCCN)C(=O)N[C@@H](CC(C)C)C(=O)N[C@@H](Cc2c[nH]c3ccccc23)C(=O)N1)C(N)=O [compound 215] | < 5.15 | 5.21 | < 5.15 | 5.30 | 1
7 | CC[C@H](C)[C@H](NC(=O)[C@H](Cc1ccc(O)cc1)NC(=O)[C@H](CCCCN)NC(=O)[C@H](CCCNC(=N)N)NC(=O)[C@@H]1CSSC[C@@H]2NC(=O)[C@H](C)NC(=O)[C@H](CCCNC(=N)N)NC(=O)[C@H](CCCCN)NC(=O)[C@H](CO)NC(=O)[C@H](CC(=O)O)NC(=O)[C@@H]3CSSC[C@H](NC(=O)[C@H](CCC(=O)O)NC(=O)[C@H](CC(C)C)NC(=O)CNC(=O)[C@H](CCC(=O)O)NC(=O)[C@H](CSSC[C@H](NC(=O)[C@@H](N)Cc4ccc(O)cc4)C(=O)N[C@@H](CCC(N)=O)C(=O)N[C@@H](CCCCN)C(=O)N[C@@H](Cc4c[nH]c5ccccc45)C(=O)N[C@@H](CCSC)C(=O)N[C@@H](CO)C(=O)N[C@@H]([C@@H](C)O)C(=O)N3)NC2=O)C(=O)N[C@@H](CCCCN)C(=O)N[C@@H](CC(C)C)C(=O)N[C@@H](Cc2c[nH]c3ccccc23)C(=O)N1)C(N)=O [compound 216] | < 5.15 and 5.27 | < 5.15 | < 5.15 | 5.33 and 5.18 | –
8 | CC[C@H](C)[C@H](NC(=O)[C@H](Cc1ccc(O)cc1)NC(=O)[C@H](CCCCN)NC(=O)[C@H](CCCNC(=N)N)NC(=O)[C@@H]1CSSC[C@@H]2NC(=O)[C@H](C)NC(=O)[C@H](CCCNC(=N)N)NC(=O)[C@H](CCCCN)NC(=O)[C@H](CO)NC(=O)[C@H](CC(=O)O)NC(=O)[C@@H]3CSSC[C@H](NC(=O)[C@H](CCC(=O)O)NC(=O)[C@H](CC(C)C)NC(=O)CNC(=O)[C@H](CCC(=O)O)NC(=O)[C@H](CSSC[C@H](NC(=O)[C@@H](N)Cc4ccc(O)cc4)C(=O)N[C@@H](CCC(N)=O)C(=O)N[C@@H](CCCCN)C(=O)N[C@@H](Cc4c[nH]c5ccccc45)C(=O)N[C@@H](CCSC)C(=O)N[C@@H](CCC(=O)O)C(=O)N[C@@H]([C@@H](C)O)C(=O)N3)NC2=O)C(=O)N[C@@H](CCCCN)C(=O)N[C@@H](CC(C)C)C(=O)N[C@@H](Cc2c[nH]c3ccccc23)C(=O)N1)C(N)=O [compound 217] | < 5.15 | < 5.15 | < 5.15 | < 5.15 | –
9 | CC[C@H](C)[C@H](NC(=O)[C@H](Cc1ccc(O)cc1)NC(=O)[C@H](CCCCN)NC(=O)[C@H](CCCNC(=N)N)NC(=O)[C@@H]1CSSC[C@@H]2NC(=O)[C@H](C)NC(=O)[C@H](CCCNC(=N)N)NC(=O)[C@H](CCCCN)NC(=O)[C@H](CO)NC(=O)[C@H](CC(=O)O)NC(=O)[C@@H]3CSSC[C@H](NC(=O)[C@H](CCC(=O)O)NC(=O)[C@H](CC(C)C)NC(=O)CNC(=O)[C@H](CCC(=O)O)NC(=O)[C@H](CSSC[C@H](NC(=O)[C@@H](N)Cc4ccc(O)cc4)C(=O)N[C@@H](CCC(N)=O)C(=O)N[C@@H](CCCCN)C(=O)N[C@@H](Cc4c[nH]c5ccccc45)C(=O)N[C@@H](CCSC)C(=O)N[C@@H](Cc4c[nH]c5ccccc45)C(=O)N[C@@H]([C@@H](C)O)C(=O)N3)NC2=O)C(=O)N[C@@H](CCCCN)C(=O)N[C@@H](CC(C)C)C(=O)N[C@@H](Cc2ccc3ccccc3c2)C(=O)N1)C(N)=O [compound 219] | < 5.15 | < 5.15 | < 5.15 | 6.07 and 6.00 | –
10 | CC[C@H](C)[C@H](NC(=O)[C@H](Cc1ccc(O)cc1)NC(=O)[C@H](CCCCN)NC(=O)[C@H](CCCNC(=N)N)NC(=O)[C@@H]1CSSC[C@@H]2NC(=O)[C@H](C)NC(=O)[C@H](CCCNC(=N)N)NC(=O)[C@H](CCCCN)NC(=O)[C@H](CO)NC(=O)[C@H](CC(=O)O)NC(=O)[C@@H]3CSSC[C@H](NC(=O)[C@H](CCC(=O)O)NC(=O)[C@H](CC(C)C)NC(=O)CNC(=O)[C@H](CCC(=O)O)NC(=O)[C@H](CSSC[C@H](NC(=O)[C@@H](N)Cc4ccc(O)cc4)C(=O)N[C@@H](CCC(N)=O)C(=O)N[C@@H](CCCCN)C(=O)N[C@@H](Cc4c[nH]c5ccccc45)C(=O)N[C@@H](CCSC)C(=O)N[C@@H](Cc4c[nH]c5ccccc45)C(=O)N[C@@H]([C@@H](C)O)C(=O)N3)NC2=O)C(=O)N[C@@H](CCCCN)C(=O)N[C@@H](CC(C)C)C(=O)N[C@@H](C(C)C)C(=O)N1)C(N)=O [compound 223] | < 5.30 | < 5.30 | < 5.30 | < 5.30 | –
